The record followed here is patent publication US20060024691A1, “Novel pathways in the etiology of cancer” (Buck Institute for Age Research, priority 2004, published 2006).

For one assay, the system named is ERα. The following applies: estrogen-free culture, 30 min, K3 100 μM, estradiol 10 nM. As for the experimental part:
Human breast cancer cell lines MCF7 and T47D were obtained from the American Type Culture Collection (ATCC). MCF7 cells were maintained in Dulbecco's Modification of Eagle's Medium (Cellgro) supplemented with 10% fetal bovine serum (Cellgro), 1% penicillin/streptomycin (Cellgro) and 10 μg/ml insulin (Sigma). T47D cells were maintained in RPMI (Cellgro) supplemented with 10% fetal bovine serum, 1% penicillin/streptomycin and 10 μg/ml insulin. Treatment conditions for both cell lines involved plating ˜1×10^6 cells in normal media onto 10 cm dishes, attachment and growth for 24 hours followed by a change to estrogen-free culture conditions (phenol red-free DME H-16 supplemented with 10% charcoal stripped serum, 1% penicillin/streptomycin and 10 μg/ml insulin) for an additional 24 hours. Cells were then treated as indicated for 30 minutes before extract preparation. Indicated conditions involved 30 minute pretreatments.
For preparation of high-salt nuclear extracts (nucleoplasm), isolated nuclei were resuspended for 20 minutes in ice cold extraction buffer (0.4 M NaCl, 25 mM Tris pH 7.5, 1 mM DTT, 20% glycerol, 10 mM NaFl and min-complete protease inhibitors (Roche)) followed by a 4° C. centrifugation at 16,000×g for 15 minutes.

Another assay concerns NF-κB p65. In words: Nuclear translocation of NF-κB p65 in MCF-7 cultures. It counts as cell-based, human. To be noted: 10 μM, 30 min.
In the next assay the test system is NFκB. In words: NFκB DNA-binding by EMSA, nuclear extracts of menadione treated MCF-7 cells. Format: cell-based, human. To be noted: MCF-7, menadione 100 μM × 30 min. As for the experimental part: (§1) PS-341 was kindly provided by Millennium Pharmaceuticals Inc. (Cambridge, Mass.). […] For assessment of combined treatment effects on cell viability, 2×10^4 cells (MCF-7, MCF-7/HER2, BT474) grown in 24-well plates were first treated with tamoxifen (dissolved in ethanol) and/or parthenolide (dissolved in DMSO); for the combination treatment pathenolide was added 4 h before addition of tamoxifen. Cell viability was measured 18 h after tamoxifen treatment using the sulforhodamine B (SRB) assay (Skehan, et al. 1990). Briefly, cells fixed with trichloroacetic acid were stained for 30 min with 0.4% SRB dissolved in 1% acetic acid. Unbound dye was removed by four washes with 1% acetic acid, and protein-bound dye was extracted with 10 mM unbuffered Tris base [tris(hydroxymethyl)aminomethane] for determination of optical density at 564 nm.
(§2) Fractionation of control and treated cells into cytoplasmic and nuclear extracts was performed as previously described (Dignam et al., 1983), with minor modification. Cells harvested on ice were washed twice with cold PBS, scraped and resuspended in 1.0 ml hypotonic buffer (20 mM HEPES, pH 7.0; 10 mM KCl; 1 mM MgCl2; 0.1% Triton X-100; 20% glycerol; 0.5 mM DTT) containing a cocktail of protease inhibitors (Mini CompleteTM protease inhibitors, Roche Diagnostics, Mannheim, Germany). The harvested cells were Dounce homogenized on ice, the mixture centrifuged at 3,000 rpm at 4° C. (5 min), and the cytoplasmic fraction separated from the nuclear pellet which was resuspended in elution buffer (20 mM HEPES, pH 7.0; 10 mM KCl; 1 mM MgCl2; 0.42 M NaCl; 0.1% Triton X-100; 20% glycerol; 0.5 mM DTT), supplemented with protease inhibitors. After 20 min at 4° C. the buffered mixture was centrifuged at 14,000 rpm at 4° C. (10 min) to obtain solubilized nuclear extracts which were then stored in aliquots at −80° C. after protein determination (Bradford; BioRad, Hercules, Calif.) and for subsequent NFkB DNA-binding assays.
NFκB DNA-binding activity was measured by two different techniques. Analogous to previous tumor extract scoring of Sp1 DNA-binding protein (Quong et al., 2002), total specific NFκB DNA-binding protein was determined by electrophoretic morbility shift assay (EMSA) as follows. A duplexed oligonucleotide probe (Promega, Madison, Wis.) with sense strand containing the decameric κB consensus binding sequence (underlined) 5′-[…]-3′(SEQ ID NO:4) was end-labeled with [γ-P32]ATP (PerkinElmer, Boston, Mass.) using T4 polynucleotide kinase (Promega, Madison, Wis.) and purified with G-50 Sephadex Bio-Spin columns (BioRad, Hercules, Calif.). […]
For orientation: Mobility shift assays separate free from complexed probe on a gel.

For a further assay, the system named is IκBα. In words: Immunoblot of cytoplasmic IκBα in MCF-7 cells. It counts as cell-based, human. The following applies: MCF-7, menadione 100 μM × 30 min. As for the experimental part:
as §1
Fractionation of control and treated cells into cytoplasmic and nuclear extracts was performed as previously described (Dignam et al., 1983), with minor modification. Cells harvested on ice were washed twice with cold PBS, scraped and resuspended in 1.0 ml hypotonic buffer (20 mM HEPES, pH 7.0; 10 mM KCl; 1 mM MgCl2; 0.1% Triton X-100; 20% glycerol; 0.5 mM DTT) containing a cocktail of protease inhibitors (Mini CompleteTM protease inhibitors, Roche Diagnostics, Mannheim, Germany). […]

Assay [1] deals with p50 and p65 NFκB subunits. Briefly: Immunoblot of nuclear p50 and p65 NFκB subunits in MCF-7 cells. To be noted: MCF-7, menadione 100 μM × 30 min. Format: cell-based, human. As for the experimental part: as §1, §2
Antibodies against p50 NFκB, p65 NFκB, IκB, and β-actin proteins were commercially obtained (Santa Cruz Biotechnology, Santa Cruz, Calif.; and Abcam Inc., Cambridge, Mass.). […]; 4% SDS; 20% glycerol; and 10% 2-mercaptoethanol) and resolved by electrophoresis in 4-12% Bis-Tris SDS gradient gels in morpholinepropane sulfonic acid (MOPS) buffer. Separated proteins were transferred onto polyvinylidene difluoride membranes (Millipore Co., Billerica, Mass.), blocked with 5% non-fat milk in PBS containing 0.1% Tween-20, and membranes immunoblotted with the indicated antibodies in blocking solution. […]
On the technique in general: Immunoblotting shows a protein as a band on a membrane.

“Also recorded” adds a separate entry of the source. Read-outs that look alike come from different tables or passages of the source.

Take `CC1=CC(=O)c2ccccc2C1=O` [menadione, 2-methyl-1,4-naphthoquinone]: the “nuclear translocation of ERα” value in the assay with ERα was “nuclear translocation of 67 kDa (wild-type) ER”; in the assay on ERα (listed as K3), “majority of this cytoplasmic ERα has translocated to the nucleus”. Further, in the assay with NF-κB p65, the “increase in nuclear translocation of NF-κB p65 vs control treated cells” value was more than 3 fold. The “NFκB activation after menadione treatment (EMSA)” value in the assay on NFκB is listed as “increase in MCF-7 NFκB activation; also recorded: significantly increase MCF-7 NFκB activity”. The “cytoplasmic levels of IκBα after menadione treatment” value in the assay on IκBα was “reduced”. Besides, the “nuclear NFκB subunits p50 and p65 after menadione treatment” value in assay [1] was “increases in the nuclear NFκB subunits, p50 and p65”.
